Read-outs that look alike come from different tables or passages of the source.
What was measured:
Type in all cases: cell-based, human
Colon cancer cell lines = assay: NCI anticancer screen, SRB assay, panel summary; settings: for GI50: Homo sapiens
Protocol: (§1) Some of biological activity studies were carried out at the National Cancer Institute (NCI), Maryland, USA.
(§2) The compounds were evaluated for anticancer activity against fifty three human cancer cells derived from nine cancer types (leukemia cell line, non-small-cell lung cell line, colon cell line, CNS cell line, melanoma cell line, ovarian cell line, prostate cell line, and breast cancer cell line) as shown in Table 1. For each compound, dose response curves for each cell line were measured at a minimum of five concentrations at 10 fold dilutions. A protocol of 48 h continuous drug exposure was used and a sulforhodamine B (SRB) protein assay was used to estimate cell viability or growth.

CNS cancer cell lines = assay: NCI anticancer screen, SRB assay, panel summary; settings: for GI50: Homo sapiens
Protocol: as §1, §2

[1] = tested on: Non-small cell lung cancer cell lines; assay: NCI anticancer screen, SRB assay, panel summary; settings: Homo sapiens
Protocol: as §1, §2

[2] = tested on: Leukemia cancer cell lines; assay: NCI anticancer screen, SRB assay, panel summary; settings: Homo sapiens
Protocol: as §1, §2

[3] = tested on: Melanoma cancer cell lines; assay: NCI anticancer screen, SRB assay, panel summary; settings: for GI50: Homo sapiens
Protocol: as §1, §2

Renal cancer cell lines = assay: NCI anticancer screen, SRB assay, panel summary; settings: Homo sapiens
Protocol: as §1, §2

[4] = tested on: Ovarian cancer cell lines; assay: NCI anticancer screen, SRB assay, panel summary; settings: Homo sapiens
Protocol: as §1, §2

Breast cancer cell lines = assay: NCI anticancer screen, SRB assay, panel summary; settings: Homo sapiens
Protocol: as §1, §2

[5] = tested on: HOP-92 (non-small cell lung); assay: NCI anticancer screen, SRB assay, 48 h; settings: Homo sapiens
Protocol: as §1, §2

[6] = tested on: NCI-H522 (non-small cell lung); assay: NCI anticancer screen, SRB assay, 48 h; settings: Homo sapiens
Protocol: as §1, §2

SK-MEL-5 (melanoma) = assay: NCI anticancer screen, SRB assay, 48 h; settings: Homo sapiens
Protocol: as §1, §2

BT-549 (breast) = assay: NCI anticancer screen, SRB assay, 48 h; settings: Homo sapiens
Protocol: as §1, §2

MDA-MB-435 (melanoma) = assay: NCI anticancer screen, SRB assay, 48 h; settings: Homo sapiens
Protocol: as §1, §2

HCT-15 (colon) = assay: NCI anticancer screen, SRB assay, 48 h; settings: Homo sapiens
Protocol: as §1, §2

TD-47D (breast) = assay: NCI anticancer screen, SRB assay, 48 h; settings: Homo sapiens
Protocol: as §1, §2

KM12 (colon) = assay: NCI anticancer screen, SRB assay, 48 h; settings: Homo sapiens
Protocol: as §1, §2

SF-539 (CNS) = assay: NCI anticancer screen, SRB assay, 48 h; settings: Homo sapiens
Protocol: as §1, §2

OVCAR-5 (ovarian) = assay: NCI anticancer screen, SRB assay, 48 h; settings: Homo sapiens
Protocol: as §1, §2

UO-31 (renal) = assay: NCI anticancer screen, SRB assay, 48 h; settings: Homo sapiens
Protocol: as §1, §2

TK-10 (renal) = assay: NCI anticancer screen, SRB assay, 48 h; settings: Homo sapiens
Protocol: as §1, §2

[7] = tested on: A549/ATCC (non-small cell lung); assay: NCI anticancer screen, SRB assay, 48 h; settings: Homo sapiens
Protocol: as §1, §2

CAKI-1 (renal) = assay: NCI anticancer screen, SRB assay, 48 h; settings: Homo sapiens
Protocol: as §1, §2

[8] = tested on: NCI-H322M (non-small cell lung); assay: NCI anticancer screen, SRB assay, 48 h; settings: Homo sapiens
Protocol: as §1, §2

COLO 205 (colon) = assay: NCI anticancer screen, SRB assay, 48 h; settings: Homo sapiens, COLO 205
Protocol: as §1, §2

[9] = tested on: EKVX (non-small cell lung); assay: NCI anticancer screen, SRB assay, 48 h; settings: Homo sapiens
Protocol: as §1, §2

SK-MEL-2 (melanoma) = assay: NCI anticancer screen, SRB assay, 48 h; settings: Homo sapiens
Protocol: as §1, §2

[10] = tested on: NCI-H23 (non-small cell lung); assay: NCI anticancer screen, SRB assay, 48 h; settings: Homo sapiens
Protocol: as §1, §2

HCC-2998 (colon) = assay: NCI anticancer screen, SRB assay, 48 h; settings: Homo sapiens
Protocol: as §1, §2

OVCAR-3 (ovarian) = assay: NCI anticancer screen, SRB assay, 48 h; settings: Homo sapiens
Protocol: as §1, §2

SN12C (renal) = assay: NCI anticancer screen, SRB assay, 48 h; settings: Homo sapiens, SN12C
Protocol: as §1, §2

A498 (renal) = assay: NCI anticancer screen, SRB assay, 48 h; settings: Homo sapiens
Protocol: as §1, §2

[11] = 48 h exposure, SRB, read-out: GI50
[12] = read-out: pGI50 (-log of molar concentration causing 50% inhibition of net cell growth) (converted)

O=C(/C=C/c1cccc(O)c1)c1cccc(-n2cc(-c3ccc(Cl)cc3)[nH]c2=O)c1 [4f, 4-(4-chlorophenyl)-1-3-[(E)-3-(3-hydroxyphenyl)-2-propenoyl]phenyl-2,3-dihydro-1H-2-imidazolone]
mean graph midpoint (MG_MID) of Log10 LC50 (Colon cancer cell lines; Colon panel, log of concentration leading to 50% net cell death): 4.68
GI50 (Colon cancer cell lines; Colon panel, log of concentration in mol/L causing 50% inhibition of net cell growth, read-out: mean graph midpoint (MG_MID) of Log10 GI50 (converted)): 2340 nM
GI50 (Colon cancer cell lines; seven colon cancer cell lines, exposure at least 48 hrs, read-out: GI50, range over the panel): 1230 to 13700 nM
mean graph midpoint (MG_MID) of Log10 LC50 (CNS cancer cell lines; CNS panel, log of concentration leading to 50% net cell death): 4.87
GI50 (CNS cancer cell lines; CNS panel, log of concentration in mol/L causing 50% inhibition of net cell growth, read-out: mean graph midpoint (MG_MID) of Log10 GI50 (converted)): 1450 nM
GI50 (CNS cancer cell lines; six CNS cancer cell lines, exposure at least 48 hrs, read-out: GI50, range over the panel): 580 to 1920 nM
GI50 ([1]; Non-small cell lung panel, log of concentration in mol/L causing 50% inhibition of net cell growth, read-out: mean graph midpoint (MG_MID) of Log10 GI50 (converted)): 2340 nM
LC50 ([1]; Non-small cell lung panel, log of concentration leading to 50% net cell death, read-out: mean graph midpoint (MG_MID) of Log10 LC50 (converted)): 57500 nM
GI50 ([1]; nine non-small cell lung cancer cell lines, exposure at least 48 hrs, read-out: GI50, range over the panel): 1600 to 3550 nM
GI50 ([2]; Leukemia panel, log of concentration in mol/L causing 50% inhibition of net cell growth, read-out: mean graph midpoint (MG_MID) of Log10 GI50 (converted)): 794 nM
LC50 ([2]; Leukemia panel, log of concentration leading to 50% net cell death, read-out: mean graph midpoint (MG_MID) of Log10 LC50 (converted)): 87100 nM
GI50 ([2]; two leukemia cancer cell lines (RPMI-8226 and K-562), exposure at least 48 hrs, read-out: GI50, range over the panel): 400 to 1550 nM
GI50 ([3]; Melanoma panel, log of concentration in mol/L causing 50% inhibition of net cell growth, read-out: mean graph midpoint (MG_MID) of Log10 GI50 (converted)): 2190 nM
GI50 ([3]; nine melanoma cancer cell lines, exposure at least 48 hrs, read-out: GI50, range over the panel): 1530 to 4070 nM
mean graph midpoint (MG_MID) of Log10 LC50 ([3]; Melanoma panel, log of concentration leading to 50% net cell death): 4.55
GI50 (Renal cancer cell lines; Renal panel, log of concentration in mol/L causing 50% inhibition of net cell growth, read-out: mean graph midpoint (MG_MID) of Log10 GI50 (converted)): 1780 nM
LC50 (Renal cancer cell lines; Renal panel, log of concentration leading to 50% net cell death, read-out: mean graph midpoint (MG_MID) of Log10 LC50 (converted)): 27500 nM
GI50 (Renal cancer cell lines; eight renal cancer cell lines, exposure at least 48 hrs, read-out: GI50, range over the panel): 550 to 3710 nM
GI50 ([4]; Ovarian panel, log of concentration in mol/L causing 50% inhibition of net cell growth, read-out: mean graph midpoint (MG_MID) of Log10 GI50 (converted)): 2040 nM
LC50 ([4]; Ovarian panel, log of concentration leading to 50% net cell death, read-out: mean graph midpoint (MG_MID) of Log10 LC50 (converted)): 46800 nM
GI50 ([4]; six ovarian cancer cell lines, exposure at least 48 hrs, read-out: GI50, range over the panel): 990 to 4210 nM
GI50 (Breast cancer cell lines; Breast panel, log of concentration in mol/L causing 50% inhibition of net cell growth, read-out: mean graph midpoint (MG_MID) of Log10 GI50 (converted)): 2190 nM
LC50 (Breast cancer cell lines; Breast panel, log of concentration leading to 50% net cell death, read-out: mean graph midpoint (MG_MID) of Log10 LC50 (converted)): 63100 nM
GI50 (Breast cancer cell lines; five breast cancer cell lines, exposure at least 48 hrs, read-out: GI50, range over the panel): 1290 to 4000 nM
GI50 [5, 11]: 1600 nM
GI50 [5, 12]: 1580 nM
GI50 [6, 11]: 1650 nM
GI50 [6, 12]: 1660 nM
GI50 (SK-MEL-5 (melanoma); [11]): 1530 nM
GI50 (SK-MEL-5 (melanoma); [12]): 1510 nM
GI50 (BT-549 (breast); [11]): 1450 nM
GI50 (BT-549 (breast); [12]): 1450 nM
GI50 (MDA-MB-435 (melanoma); [11]): 2060 nM
GI50 (MDA-MB-435 (melanoma); [12]): 2040 nM
GI50 (HCT-15 (colon); [11]): 2330 nM
GI50 (HCT-15 (colon); [12]): 2340 nM
GI50 (TD-47D (breast); [11]): 1920 nM
GI50 (TD-47D (breast); [12]): 1910 nM
GI50 (KM12 (colon); [11]): 1340 nM
GI50 (KM12 (colon); [12]): 1350 nM
GI50 (SF-539 (CNS); [11]): 1680 nM
GI50 (SF-539 (CNS); [12]): 1700 nM
GI50 (OVCAR-5 (ovarian); [11]): 2190 nM
GI50 (OVCAR-5 (ovarian); [12]): 2190 nM
GI50 (UO-31 (renal); [11]): 550 nM
GI50 (UO-31 (renal); [12]): 550 nM
GI50 (TK-10 (renal); [11]): 2830 nM
GI50 (TK-10 (renal); [12]): 2820 nM
GI50 [7, 11]: 3550 nM
GI50 [7, 12]: 3550 nM
GI50 (CAKI-1 (renal); [11]): 1720 nM
GI50 (CAKI-1 (renal); [12]): 1740 nM
GI50 [8, 11]: 2520 nM
GI50 [8, 12]: 2510 nM
GI50 (COLO 205 (colon); COLO205, read-out: pGI50 (-log of molar concentration causing 50% inhibition of net cell growth) (converted)): 2290 nM
GI50 (COLO 205 (colon); [11]): 2290 nM
GI50 [9, 11]: 2400 nM
GI50 [9, 12]: 2400 nM
GI50 (SK-MEL-2 (melanoma); [11]): 2070 nM
GI50 (SK-MEL-2 (melanoma); [12]): 2090 nM
GI50 [10, 11]: 2780 nM
GI50 [10, 12]: 2750 nM
GI50 (HCC-2998 (colon); [11]): 13700 nM
GI50 (HCC-2998 (colon); [12]): 13800 nM
GI50 (OVCAR-3 (ovarian); [11]): 1560 nM
GI50 (OVCAR-3 (ovarian); [12]): 1550 nM
GI50 (SN12C (renal); SN 12C, read-out: pGI50 (-log of molar concentration causing 50% inhibition of net cell growth) (converted)): 1950 nM
GI50 (SN12C (renal); [11]): 1950 nM
GI50 (A498 (renal); [11]): 3710 nM
GI50 (A498 (renal); [12]): 3720 nM

Source: patent US8889874B2, “Imidazolone-chalcone derivatives as potential anticancer agent and process for the preparation thereof” (Council of Scientific and Industrial Research, priority 2010, dated 2014)
